# Data: ChEMBL document CHEMBL1255199, “Endochin optimization: structure-activity and structure-property relationship studies of 3-substituted 2-methyl-4(1H)-quinolones with antimalarial activity” (J Med Chem, 2010)
# System: Plasmodium falciparum
# Assay: Antimalarial activity against chloroquine and pyrimethamine-resistant Plasmodium falciparum W2 infected in human A+ erythrocytes after 72 hrs by SYBR Green I assay
# Format: functional, organism-based
# Conditions: W2, 72 h
row,SMILES,EC50 [µM]
1,Cc1[nH]c2ccccc2c(=O)c1-c1ccccc1,0.711
2,Cc1[nH]c2ccccc2c(=O)c1Cc1ccccc1,> 5.01
3,Cc1[nH]c2ccc(Br)cc2c(=O)c1Br,1.4
4,Cc1[nH]c2ccc(Cl)cc2c(=O)c1Br,0.845
5,CCCCC#Cc1c(C)[nH]c2ccc(F)cc2c1=O,> 9.64
6,COc1cccc2[nH]c(C)c(-c3ccccc3)c(=O)c12,8.15
7,Cc1[nH]c2cccc(Cl)c2c(=O)c1Cc1ccccc1,0.63
8,Cc1[nH]c2ccccc2c(=O)c1/C=C/C(=O)OC(C)(C)C,> 8.35
9,Cc1[nH]c2ccccc2c(=O)c1/C=C/c1cccc([N+](=O)[O-])c1,4.6
10,Cc1[nH]c2ccccc2c(=O)c1/C=C/c1ccc(O)cc1,> 9.01
11,COc1cccc2[nH]c(C)c(Cc3ccccc3)c(=O)c12,6.44
12,COc1ccc2[nH]c(C)c(Cc3ccccc3)c(=O)c2c1,> 8.95
13,COc1ccc2c(=O)c(Cc3ccccc3)c(C)[nH]c2c1,0.733
14,COc1cccc2c(=O)c(Cc3ccccc3)c(C)[nH]c12,> 2.24
15,Cc1[nH]c2ccccc2c(=O)c1Br,0.453

# System: not listed separately
# Assay: Passive transcellular permeability of the compound at pH 7.4 by PAMPA
# Format: ADME
# Conditions: read-out: permeability
row,SMILES,Papp [×10⁻⁶ cm/s]
1,Cc1[nH]c2ccccc2c(=O)c1-c1ccccc1,33
2,Cc1[nH]c2ccccc2c(=O)c1Cc1ccccc1,102
3,Cc1[nH]c2ccc(Br)cc2c(=O)c1Br,95.2
4,Cc1[nH]c2ccc(Cl)cc2c(=O)c1Br,87.7
5,CCCCC#Cc1c(C)[nH]c2ccc(F)cc2c1=O,495
6,COc1cccc2[nH]c(C)c(-c3ccccc3)c(=O)c12,333
7,Cc1[nH]c2cccc(Cl)c2c(=O)c1Cc1ccccc1,251
8,Cc1[nH]c2ccccc2c(=O)c1/C=C/C(=O)OC(C)(C)C,124
9,Cc1[nH]c2ccccc2c(=O)c1/C=C/c1cccc([N+](=O)[O-])c1,602
10,Cc1[nH]c2ccccc2c(=O)c1/C=C/c1ccc(O)cc1,17
11,COc1cccc2[nH]c(C)c(Cc3ccccc3)c(=O)c12,158
12,COc1ccc2[nH]c(C)c(Cc3ccccc3)c(=O)c2c1,188
13,COc1ccc2c(=O)c(Cc3ccccc3)c(C)[nH]c2c1,240
14,COc1cccc2c(=O)c(Cc3ccccc3)c(C)[nH]c12,125
15,Cc1[nH]c2ccccc2c(=O)c1Br,13.6

# System: J774
# Assay: Cytotoxicity against mouse J774 cells
# Format: cell-based
# Conditions: not given
row,SMILES,EC50 [µM]
1,Cc1[nH]c2ccccc2c(=O)c1-c1ccccc1,> 42.5
2,Cc1[nH]c2ccccc2c(=O)c1Cc1ccccc1,> 40.1
3,Cc1[nH]c2ccc(Br)cc2c(=O)c1Br,> 31.5
4,Cc1[nH]c2ccc(Cl)cc2c(=O)c1Br,21.7
5,CCCCC#Cc1c(C)[nH]c2ccc(F)cc2c1=O,> 38.6
6,COc1cccc2[nH]c(C)c(-c3ccccc3)c(=O)c12,> 37.7
7,Cc1[nH]c2cccc(Cl)c2c(=O)c1Cc1ccccc1,> 35.2
8,Cc1[nH]c2ccccc2c(=O)c1/C=C/C(=O)OC(C)(C)C,> 40
9,Cc1[nH]c2ccccc2c(=O)c1/C=C/c1cccc([N+](=O)[O-])c1,> 32.6
10,Cc1[nH]c2ccccc2c(=O)c1/C=C/c1ccc(O)cc1,> 36.1
11,COc1cccc2[nH]c(C)c(Cc3ccccc3)c(=O)c12,11.2
12,COc1ccc2[nH]c(C)c(Cc3ccccc3)c(=O)c2c1,> 23.7
13,COc1ccc2c(=O)c(Cc3ccccc3)c(C)[nH]c2c1,> 35.8
14,COc1cccc2c(=O)c(Cc3ccccc3)c(C)[nH]c12,> 35.8
15,Cc1[nH]c2ccccc2c(=O)c1Br,> 42

# System: not listed separately
# Assay: Lipophilicity, log D of the compound at pH 7.4
# Conditions: buffer
row,SMILES,logD
1,Cc1[nH]c2ccccc2c(=O)c1-c1ccccc1,2.02
2,Cc1[nH]c2ccccc2c(=O)c1Cc1ccccc1,1.93
3,Cc1[nH]c2ccc(Br)cc2c(=O)c1Br,1.76
4,Cc1[nH]c2ccc(Cl)cc2c(=O)c1Br,2.02
5,CCCCC#Cc1c(C)[nH]c2ccc(F)cc2c1=O,5.64
6,COc1cccc2[nH]c(C)c(-c3ccccc3)c(=O)c12,1.63
7,Cc1[nH]c2cccc(Cl)c2c(=O)c1Cc1ccccc1,2.65
8,Cc1[nH]c2ccccc2c(=O)c1/C=C/C(=O)OC(C)(C)C,2.34
9,Cc1[nH]c2ccccc2c(=O)c1/C=C/c1cccc([N+](=O)[O-])c1,2.95
10,Cc1[nH]c2ccccc2c(=O)c1/C=C/c1ccc(O)cc1,1.77
11,COc1cccc2[nH]c(C)c(Cc3ccccc3)c(=O)c12,2.11
12,COc1ccc2[nH]c(C)c(Cc3ccccc3)c(=O)c2c1,2.53
13,COc1ccc2c(=O)c(Cc3ccccc3)c(C)[nH]c2c1,2.52
14,COc1cccc2c(=O)c(Cc3ccccc3)c(C)[nH]c12,2.24
15,Cc1[nH]c2ccccc2c(=O)c1Br,1.67

# System: Plasmodium falciparum
# Assay: Antimalarial activity against chloroquine, mefloquine, pyrimethamine and atovaquone-resistant Plasmodium falciparum TM90-C2B infected in human A+ erythrocytes after 72 hrs by SYBR Green I assay
# Format: functional, organism-based
# Conditions: not given
row,SMILES,EC50 [µM]
1,Cc1[nH]c2ccccc2c(=O)c1-c1ccccc1,0.538
2,Cc1[nH]c2ccccc2c(=O)c1Cc1ccccc1,6.2
3,Cc1[nH]c2ccc(Br)cc2c(=O)c1Br,0.339
4,Cc1[nH]c2ccc(Cl)cc2c(=O)c1Br,0.126
5,CCCCC#Cc1c(C)[nH]c2ccc(F)cc2c1=O,> 9.64
6,COc1cccc2[nH]c(C)c(-c3ccccc3)c(=O)c12,5.08
7,Cc1[nH]c2cccc(Cl)c2c(=O)c1Cc1ccccc1,5.26
8,Cc1[nH]c2ccccc2c(=O)c1/C=C/C(=O)OC(C)(C)C,> 8.35
9,Cc1[nH]c2ccccc2c(=O)c1/C=C/c1cccc([N+](=O)[O-])c1,1.49
10,Cc1[nH]c2ccccc2c(=O)c1/C=C/c1ccc(O)cc1,> 9.02
11,COc1cccc2[nH]c(C)c(Cc3ccccc3)c(=O)c12,2.11
12,COc1ccc2[nH]c(C)c(Cc3ccccc3)c(=O)c2c1,23.7
13,COc1ccc2c(=O)c(Cc3ccccc3)c(C)[nH]c2c1,1.38
14,COc1cccc2c(=O)c(Cc3ccccc3)c(C)[nH]c12,> 5.45
15,Cc1[nH]c2ccccc2c(=O)c1Br,0.0776

# System: not listed separately
# Assay: Passive transcellular permeability of the compound at pH 4 by PAMPA
# Format: ADME
# Conditions: read-out: permeability
row,SMILES,Papp [×10⁻⁶ cm/s]
1,Cc1[nH]c2ccccc2c(=O)c1-c1ccccc1,16.6
2,Cc1[nH]c2ccccc2c(=O)c1Cc1ccccc1,110
3,Cc1[nH]c2ccc(Br)cc2c(=O)c1Br,133
4,Cc1[nH]c2ccc(Cl)cc2c(=O)c1Br,84.5
5,CCCCC#Cc1c(C)[nH]c2ccc(F)cc2c1=O,314
6,COc1cccc2[nH]c(C)c(-c3ccccc3)c(=O)c12,24.4
7,Cc1[nH]c2cccc(Cl)c2c(=O)c1Cc1ccccc1,244
8,Cc1[nH]c2ccccc2c(=O)c1/C=C/C(=O)OC(C)(C)C,105
9,Cc1[nH]c2ccccc2c(=O)c1/C=C/c1cccc([N+](=O)[O-])c1,508
10,Cc1[nH]c2ccccc2c(=O)c1/C=C/c1ccc(O)cc1,10.7
11,COc1cccc2[nH]c(C)c(Cc3ccccc3)c(=O)c12,69.8
12,COc1ccc2[nH]c(C)c(Cc3ccccc3)c(=O)c2c1,167
13,COc1ccc2c(=O)c(Cc3ccccc3)c(C)[nH]c2c1,200
14,COc1cccc2c(=O)c(Cc3ccccc3)c(C)[nH]c12,164
15,Cc1[nH]c2ccccc2c(=O)c1Br,8.19

# System: not listed separately
# Assay: in vitro
# Conditions: mouse, J774 cells
# Description: Cytotoxicity index, ratio of EC50 for mice (Mus musculus) J774 cells to EC50 for chloroquine, mefloquine, pyrimethamine and atovaquone-resistant Plasmodium falciparum TM90-C2B
row,SMILES,selectivity ratio
1,Cc1[nH]c2ccccc2c(=O)c1-c1ccccc1,> 79.1
2,Cc1[nH]c2ccccc2c(=O)c1Cc1ccccc1,> 6.5
3,Cc1[nH]c2ccc(Br)cc2c(=O)c1Br,> 92.9
4,Cc1[nH]c2ccc(Cl)cc2c(=O)c1Br,172
5,CCCCC#Cc1c(C)[nH]c2ccc(F)cc2c1=O,> 4
6,COc1cccc2[nH]c(C)c(-c3ccccc3)c(=O)c12,> 7.4
7,Cc1[nH]c2cccc(Cl)c2c(=O)c1Cc1ccccc1,> 6.7
8,Cc1[nH]c2ccccc2c(=O)c1/C=C/C(=O)OC(C)(C)C,> 4.8
9,Cc1[nH]c2ccccc2c(=O)c1/C=C/c1cccc([N+](=O)[O-])c1,> 21.9
10,Cc1[nH]c2ccccc2c(=O)c1/C=C/c1ccc(O)cc1,> 4
11,COc1cccc2[nH]c(C)c(Cc3ccccc3)c(=O)c12,5.33
12,COc1ccc2[nH]c(C)c(Cc3ccccc3)c(=O)c2c1,> 1
13,COc1ccc2c(=O)c(Cc3ccccc3)c(C)[nH]c2c1,> 25.9
14,COc1cccc2c(=O)c(Cc3ccccc3)c(C)[nH]c12,> 6.5
15,Cc1[nH]c2ccccc2c(=O)c1Br,> 542

# System: not listed separately
# Assay: physchem
# Conditions: aqueous, pH 7.4
# Description: Aqueous solubility of the compound at pH 7.4 by HPLC analysis
row,SMILES,solubility [µM]
1,Cc1[nH]c2ccccc2c(=O)c1-c1ccccc1,> 20
2,Cc1[nH]c2ccccc2c(=O)c1Cc1ccccc1,10
3,Cc1[nH]c2ccc(Br)cc2c(=O)c1Br,> 20
4,Cc1[nH]c2ccc(Cl)cc2c(=O)c1Br,5
5,CCCCC#Cc1c(C)[nH]c2ccc(F)cc2c1=O,2
6,COc1cccc2[nH]c(C)c(-c3ccccc3)c(=O)c12,> 20
7,Cc1[nH]c2cccc(Cl)c2c(=O)c1Cc1ccccc1,2
8,Cc1[nH]c2ccccc2c(=O)c1/C=C/C(=O)OC(C)(C)C,> 20
9,Cc1[nH]c2ccccc2c(=O)c1/C=C/c1cccc([N+](=O)[O-])c1,< 2
10,Cc1[nH]c2ccccc2c(=O)c1/C=C/c1ccc(O)cc1,> 20
11,COc1cccc2[nH]c(C)c(Cc3ccccc3)c(=O)c12,> 20
12,COc1ccc2[nH]c(C)c(Cc3ccccc3)c(=O)c2c1,2
13,COc1ccc2c(=O)c(Cc3ccccc3)c(C)[nH]c2c1,5
14,COc1cccc2c(=O)c(Cc3ccccc3)c(C)[nH]c12,> 20
15,Cc1[nH]c2ccccc2c(=O)c1Br,> 20
